Literature values as cited in US20240335422A1, “COMPOSITION AND METHODS OF TREATMENT USING TRANSDERMAL SUPPLEMENTATION” (Xygenyx Inc., priority 2023, published 2024).

Assays:
skin [1] = conditions: single penetration enhancer
[2] = test system: wide dynamic range neurons in the ventroposterolateral nucleus of the thalamus; conditions: in vivo
skin [3] = conditions: topical, concentrations 0.5-5%
skin [4] = conditions: topical, in combination with silymarin and tocopherols, test studies
[5] = not given; remark: listed apart in the source
[6] = compared to α-tocopherol taken as 1.0
[7] = even when dietary intake occurs in equal portions
[8] = in vivo

## CC(C)[C@@H]1CC[C@@H](C)C[C@H]1O [Menthol]
Skin [1]
  increase of transdermal drug uptake (factor): ≥ 10

## CCCCCc1cc(O)c2c(c1)OC(C)(C)C1CCC(C)=CC21 (stereo not drawn) [THC, Δ-9-tetrahydrocannabinol]
[2]
  analgesic power relative to morphine: ten times more powerful than morphine

## C=CCCCCCCCCC(=O)N[C@@H](Cc1ccccc1)C(=O)O [UP, Undecylenoyl phenylalanine]
Skin [3]
  time of treatment to skin lightening effects: ≥ 7 days

## NCCC(=O)N[C@@H](Cc1cnc[nH]1)C(=O)O [carnosine, Carnosine]
Skin [4]
  reduction of age-related wrinkles: ≤ 27%

## CC12CCC(CC1)C(C)(C)O2 [eucalyptol, 1,8-epoxy-p-menthane]
Skin [1]
  increase of transdermal drug uptake (factor): more than 10

## C/C(=C\CO)CCC[C@H](C)CCC[C@H](C)CCCC(C)C [phytol, Phytol]
other
  solubility: nearly insoluble in water, but soluble in most organic solvents

## Cc1c(C)c2c(c(C)c1O)CC[C@@](C)(CCC[C@H](C)CCC[C@H](C)CCCC(C)C)O2 [α-tocopherol]
[5]; dietary supplementation, doses up to 400 IU/day
  reduction of risk of coronary disease: up to 34%
[5]; dietary supplementation, doses up to 400 IU/day, controlled trials
  reduction of risk of developing neurodegenerative diseases (Alzheimer's Syndrome or dementia): ≤ 24%
[5]; in combination with 10-20 mg β-carotene and 400-500 mg vitamin C, doses around 400-500 IU
  reduction in the development of age-related cataracts: 23%
[5]; large doses of 1600-3200 IU/day
  blood plasma concentration of F2-isoprostane: significantly lower

## Cc1cc(O)c(C)c2c1O[C@](C)(CCC[C@H](C)CCC[C@H](C)CCCC(C)C)CC2 [β-tocopherol]
[6]
  relative biological activity: 0.5

## Cc1c(O)cc2c(c1C)O[C@](C)(CCC[C@H](C)CCC[C@H](C)CCCC(C)C)CC2 [γ-tocopherol]
[6]
  relative biological activity: 0.1
[7]
  concentration in vivo relative to α-tocopherol: roughly 10%

## Cc1cc(O)cc2c1O[C@](C)(CCC[C@H](C)CCC[C@H](C)CCCC(C)C)CC2 [δ-tocopherol]
[6]
  relative biological activity: 0.03

## HGH: hormone comprising a peptide chain synthesized in the pituitary gland
[8]
  biological half-life: 10-20 minutes
